Results: paper PMC12363211, “Rationally designed self-assembled peptide nanofibers provoke robust humoral immunity against nervous necrosis virus” (Journal of Virology, 2025)
Marks after values point to notes of the source that are not given here.

Key:
[1] = Nanofiber self-assembly and morphology (TEM); format: physicochemical; conditions: in the salts (pH = 7)
Description: CP^64-83-Q11 nanofiber synthesis and characteristics
Q11, CP^64-83, and CP^64-83-Q11 peptides were synthesized and purified by Genecreate Co. (Wuhan). […] The morphology of the CP^64-83-Q11 was determined by transmission electron microscopy (TEM) using a Hitachi Model H-7700 microscope (Hitachi, Japan). The particle size of reassembled CP^64-83-Q11 was determined using a Zetasizer (nano ZS90, Malvern Panalytical, UK). The secondary structure of CP^64-83-Q11 nanovaccine was analyzed by circular dichroism (CD) spectra (Chirascan V100, Applied Photophysics, UK).

[2] = system: grouper; assay: In vivo safety: survival, weight and pathology of vaccinated grouper; conditions: i.p. 2 mM, 28-day period
Description: NNV-free pearl gentian grouper (Epinephelus lanceolatus × Epinephelus fuscoguttatus) juveniles (5.12 ± 0.63 g) were purchased from a commercial fish farm (Wenchang, Hainan, China). Real-time quantitative polymerase chain reaction (qPCR) was used to detect NNV in purchased fish. Primers of NNVdetection F: […] and NNVdetection R: […] were used for NNV detection. Grouper were reared in a recirculating water system with filtered seawater at 28.0 ± 1.0°C. Each tank contains 50 L seawater with continuous aeration. Fish were fed twice daily and acclimated for 15 days before experiments.
Safety evaluation of the CP^64-83-Q11 nanofiber
The safety evaluation of the synthesized nanofiber was assessed using in vitro and in vivo models. For the in vitro cytotoxicity evaluation, the standard MTT assay was employed. GF-1 cells and grouper macrophages were seeded into 96-well plates at a density of 5 × 10⁵ cells per well. These cells were then exposed to varying concentrations (1, 5, 10, 20, and 40 µg/mL) of Q11, CP^64-83, CP, or CP^64-83-Q11 for 24 h. […] Absorbance was then measured at 490 nm using a microplate reader. Cell viability was calculated as follows: Cell viability = (ODtreatment group − ODblank)/(ODcontrol group − ODblank) × 100%. […] Additionally, the initial and final weights of the fish were monitored throughout the 28-day period.

QQKFQFQFEQQ [Q11, Q11 peptide (…), a minimalist self-assembling motif]
self-assembly into nanofibers [1]: could self-assemble into nanofibers in the salts (pH = 7)
Survival rate ([2]; unchallenged vaccinated grouper, 78 fish per group, all groups incl. control share letter a): 98.26 ± 3.37^a %
Final weight ([2]; vaccinated grouper, initial weight 5.12 ± 0.63 g, all groups incl. control (8.96 ± 1.02) share letter a): 8.72 ± 0.56^a g
